Measurements published in patent US10017542B2, “Antimicrobial peptides and methods of use thereof” (priority 2015, dated 2018).
Where a SMILES comes first, the peptide text is derived from it. [ ]: non-standard residue; d: D form. Orn = NCCC[C@H](N)C(=O)O

Key:
B. thailandensis = test: microbe, parasite or virus in culture; settings: Burkholderia thailandensis, 3 h
Pseudomonas Xen5 = test: Antibacterial activity, microtiter dilution method; assay type: cell-based; settings: 24 hours, 37 degrees
A. baumanii = settings: 24 h
Experimental: (§1) Briefly, cells were grown overnight in media specified for each strain, and were diluted in the same media. Serial dilutions of the peptides were added to microtiter plates in a volume of 50 ul, followed by the addition of 50 ul of bacteria or fungi, 5×10^5 CFU/ml. Plates were incubated at 37 degrees for 24 hours and the Minimum Inhibitory Concentrations (MICs) were determined as the lowest peptide concentration that inhibited 50% of bacterial growth.

E. coli = settings: 24 h
Experimental: (§2) Measurement of antimicrobial and anti-fungal activity was determined by a standard micrometer dilution method. Briefly, cells were grown overnight in media specified for each strain, and were diluted in the same media. Serial dilutions of the peptides were added to microtiter plates in a volume of 50 ul, followed by the addition of 50 ul of bacteria or fungi, 5×10^5 CFU/ml. Plates were incubated at 37 degrees for 24 hours and the Minimum Inhibitory Concentrations (MICs) were determined as the lowest peptide concentration that inhibited 50% of bacterial growth.

E. cloaca = settings: 24 h
Experimental: as §2

[1] = tested on: bacterial isolates of Table 7 (A. baumanii, E. coli, E. cloaca, Pseudomonas, Staphylococcus)
Experimental: as §1

[2] = tested on: all bacteria tested in Table 9; test: In vitro bactericidal activity screening, average across all bacteria; assay type: cell-based; settings: average value across all bacteria
[3] = tested on: Burkholderia cepacia strain Toronto (B.c.); test: In vitro bactericidal activity screening, endpoint titration; settings: last concentration giving greater than two-logs reduction in CFU vs. saline control, 10^6 CFU/ml, 37° C.
[4] = tested on: Actinobacillus actinomycetemcomitans strain A7154 (A.a.); test: as above; settings: last concentration giving greater than two-logs reduction in CFU vs. saline control
[5] = tested on: Fusobacterium nucleatum strain 1594 (F.n.); test: as above; settings: last concentration giving greater than two-logs reduction in CFU vs. saline control
[6] = tested on: Escherichia coli strain (E.c.); test: as above; settings: last concentration giving greater than two-logs reduction in CFU vs. saline control
C. albicans = settings: 24 h
Experimental: as §1

C. krusei = settings: 24 h
Experimental: as §2

[7] = tested on: fungal isolates of Table 8 (C. albicans, C. krusei, C. tropicalis)
Experimental: as §2

C. tropicalis = settings: 24 h
Experimental: as §2

[8] = tested on: Pseudomonas aeruginosa strain (P.a.); test: In vitro bactericidal activity screening, endpoint titration; settings: last concentration giving greater than two-logs reduction in CFU vs. saline control

CC(C)(O/N=C(\C(=O)N[C@@H]1C(=O)N2C(C(=O)[O-])=C(C[n+]3ccccc3)CS[C@H]12)c1csc(N)n1)C(=O)O [Ceftazidime]
EC50 (B. thailandensis): 39.1 µM

CC[C@H](C)[C@H](NC(=O)[C@H](CCCNC(=N)N)NC(=O)[C@H](C)NC(=O)[C@H](CC(C)C)NC(=O)[C@@H](N)CCCNC(=N)N)C(=O)N[C@H](C(=O)NCC(=O)NCC(=O)N[C@@H](Cc1ccccc1)C(=O)N[C@@H](C)C(=O)N[C@@H](CCCN)C(=O)N[C@@H](CCCN)C(=O)N[C@@H](Cc1ccccc1)C(=O)N[C@@H](C)C(=O)N[C@@H](CCCN)C(=O)N[C@@H](CCCN)C(=O)N[C@@H](Cc1ccccc1)C(=O)N[C@@H](CCCN)C(=O)N[C@@H](CCCN)C(=O)N[C@@H](Cc1ccccc1)C(=O)N[C@@H](C)C(=O)N[C@@H](CCCN)C(=O)N[C@@H](CCCN)C(=O)N[C@@H](Cc1ccccc1)C(=O)N[C@@H](C)C(=O)N[C@@H](CCCN)C(=O)N[C@@H](Cc1ccccc1)C(=O)N[C@@H](C)C(=O)N[C@@H](Cc1ccccc1)C(=O)N[C@@H](C)C(=O)N[C@@H](Cc1ccccc1)C(=O)O)C(C)C [RP500, RLARIVGGFAOOFAOOFOOFAOOFAOFAFAF] (H-RLARIVGGFA[Orn][Orn]FA[Orn][Orn]F[Orn][Orn]FA[Orn][Orn]FA[Orn]FAFAF-OH; N-terminus and C-terminus assumed)
IC50 (Pseudomonas Xen5): 0.5 µM | IC50 (A. baumanii): 7.6 µM | IC50 (E. coli): 3.8 µM | IC50 (E. cloaca): 7.6 µM | IC50 [1]: 5.3 µM

FARKFLKKFKRFAKKFVRFAFAF [SEQ ID NO: 6]
Two-log Reduction Concentration Ave. [2]: 1.67 μM | Two-log Reduction Concentration [3]: 1.25 μM | Two-log Reduction Concentration [4]: 0.40 μM | Two-log Reduction Concentration [5]: 3.75 μM | Two-log Reduction Concentration [6]: 0.63 μM

CC[C@H](C)[C@H](NC(=O)CNC(=O)CNC(=O)[C@H](CS)NC(=O)[C@H](Cc1ccccc1)NC(=O)[C@H](CCCN)NC(=O)CNC(=O)[C@H](CC(C)C)NC(=O)[C@H](CS)NC(=O)CNC(=O)CNC(=O)[C@H](CC(C)C)NC(=O)[C@H](CCCN)NC(=O)[C@H](C)NC(=O)[C@H](CCCN)NC(=O)[C@@H](NC(=O)[C@H](CCCN)NC(=O)[C@@H](N)Cc1ccccc1)[C@@H](C)CC)C(=O)N[C@@H](CCCN)C(=O)N[C@@H](C)C(=O)N[C@@H](CCCN)C(=O)N[C@@H](CC(C)C)C(=O)N[C@@H](CCCN)C(=O)N[C@@H](Cc1ccccc1)C(=O)O [RP504, FOIOAOLGGCLGOFCGGIOAOLOF] (H-F[Orn]I[Orn]A[Orn]LGGCLG[Orn]FCGGI[Orn]A[Orn]L[Orn]F-OH; N-terminus and C-terminus assumed)
IC50 (E. coli): 10.8 µM | IC50 [1]: 17.6 µM | IC50 (C. albicans): 43.3 µM | IC50 (C. krusei): 2.7 µM | IC50 [7]: 23 µM

C[C@H](N)C(=O)N[C@@H](Cc1ccccc1)C(=O)N[C@@H](C)C(=O)N[C@@H](Cc1ccccc1)C(=O)N[C@H](C(=O)N[C@@H](C)C(=O)N[C@@H](CCCN)C(=O)N[C@@H](CCCN)C(=O)N[C@@H](CCCN)C(=O)N[C@@H](Cc1ccccc1)C(=O)N[C@@H](C)C(=O)N[C@@H](CCCN)C(=O)N[C@@H](Cc1ccccc1)C(=O)N[C@@H](CCCN)C(=O)N[C@@H](C)C(=O)N[C@@H](CCCN)C(=O)N[C@@H](Cc1ccccc1)C(=O)N[C@@H](C)C(=O)N[C@@H](CC(N)=O)C(=O)N[C@@H](Cc1ccccc1)C(=O)N[C@@H](C)C(=O)N[C@@H](Cc1ccccc1)C(=O)N[C@@H](C)C(=O)NCC(=O)N[C@@H](Cc1ccccc1)C(=O)N[C@@H](CC(N)=O)C(=O)N[C@@H](C)C(=O)O)[C@@H](C)O [RP508, AFAFTAOOOFAOFOAOFANFAFAGFNA] (H-AFAFTA[Orn][Orn][Orn]FA[Orn]F[Orn]A[Orn]FANFAFAGFNA-OH; N-terminus and C-terminus assumed)
IC50 (C. albicans): 38.3 µM | IC50 (C. krusei): 38.3 µM | IC50 [7]: 46 µM

CSCC[C@H](NC(=O)[C@H](Cc1c[nH]c2ccccc12)NC(=O)[C@H](CC(C)C)NC(=O)[C@H](C)N)C(=O)N[C@H](C(=O)N[C@@H](CC(C)C)C(=O)N[C@@H](CCCN)C(=O)N[C@@H](CCCN)C(=O)N[C@@H](CCCN)C(=O)N[C@H](C(=O)N[C@@H](CC(C)C)C(=O)N[C@@H](CCCN)C(=O)N[C@@H](C)C(=O)N[C@@H](CCCN)C(=O)N[C@@H](C)C(=O)N[C@@H](CCCN)C(=O)N[C@@H](C)C(=O)N[C@@H](CC(C)C)C(=O)N[C@@H](CC(N)=O)C(=O)N[C@@H](C)C(=O)N[C@H](C(=O)N[C@@H](CC(C)C)C(=O)N[C@H](C(=O)NCC(=O)N[C@@H](C)C(=O)N[C@@H](CC(N)=O)C(=O)N[C@@H](C)C(=O)O)C(C)C)C(C)C)C(C)C)[C@@H](C)O [RP507, ALWMTLOOOVLOAOAOALNAVLVGANA] (H-ALWMTL[Orn][Orn][Orn]VL[Orn]A[Orn]A[Orn]ALNAVLVGANA-OH; N-terminus and C-terminus assumed)
IC50 (C. krusei): 20 µM | IC50 (C. tropicalis): 40 µM | IC50 [7]: 43.3 µM

CC[C@H](C)[C@H](NC(=O)[C@H](CCCNC(=N)N)NC(=O)[C@H](C)NC(=O)[C@H](CC(C)C)NC(=O)[C@H](CCCNC(=N)N)NC(=O)[C@@H](N)CS)C(=O)N[C@H](C(=O)N[C@@H](CS)C(=O)NCC(=O)NCC(=O)N[C@@H](Cc1ccccc1)C(=O)N[C@@H](C)C(=O)N[C@@H](CCCN)C(=O)N[C@@H](CCCN)C(=O)N[C@@H](Cc1ccccc1)C(=O)N[C@@H](C)C(=O)N[C@@H](CCCN)C(=O)N[C@@H](CCCN)C(=O)N[C@@H](Cc1ccccc1)C(=O)N[C@@H](CCCN)C(=O)N[C@@H](CCCN)C(=O)N[C@@H](Cc1ccccc1)C(=O)N[C@@H](C)C(=O)N[C@@H](CCCN)C(=O)N[C@@H](CCCN)C(=O)N[C@@H](Cc1ccccc1)C(=O)N[C@@H](C)C(=O)N[C@@H](CCCN)C(=O)N[C@@H](Cc1ccccc1)C(=O)N[C@@H](C)C(=O)N[C@@H](Cc1ccccc1)C(=O)N[C@@H](C)C(=O)N[C@@H](Cc1ccccc1)C(=O)O)C(C)C [RP501, CRLARIVCGGFAOOFAOOFOOFAOOFAOFAFAF] (H-CRLARIVCGGFA[Orn][Orn]FA[Orn][Orn]F[Orn][Orn]FA[Orn][Orn]FA[Orn]FAFAF-OH; N-terminus and C-terminus assumed)
IC50 (E. coli): 7.3 µM | IC50 (E. cloaca): 14.5 µM | IC50 [1]: 13.6 µM

CC[C@H](C)[C@H](NC(=O)[C@H](C)NC(=O)[C@H](CCCN)NC(=O)[C@H](CCCN)NC(=O)[C@H](CCCN)NC(=O)[C@@H](NC(=O)[C@H](CCCN)NC(=O)[C@H](CC(C)C)NC(=O)[C@H](CCCN)NC(=O)[C@H](CCCN)NC(=O)[C@H](CCCN)NC(=O)[C@H](CCCN)NC(=O)[C@H](C)NC(=O)[C@H](CCCN)NC(=O)[C@H](CO)NC(=O)[C@H](CC(C)C)NC(=O)[C@@H](NC(=O)[C@H](CCCCN)NC(=O)[C@H](CC(C)C)NC(=O)[C@H](CC(C)C)NC(=O)[C@H](CO)NC(=O)[C@H](CCCN)NC(=O)[C@H](CC(C)C)NC(=O)[C@@H](N)CCCN)[C@@H](C)O)[C@@H](C)O)C(=O)N[C@@H](CO)C(=O)N[C@@H](CCCN)C(=O)O [RP505, OLOSLLKTLSOAOOOOLOTOOOAISO] (H-[Orn]L[Orn]SLLKTLS[Orn]A[Orn][Orn][Orn][Orn]L[Orn]T[Orn][Orn][Orn]AIS[Orn]-OH; N-terminus and C-terminus assumed)
IC50 (C. krusei): 17.5 µM | IC50 (C. tropicalis): 8.8 µM | IC50 [7]: 13.2 µM

FAFAFKAFKKAFKKFKKAFKKAFGPGRFAKKFAKKFKKFAKKFAKFAFAF [RP-433]
Two-log Reduction Concentration Ave. [2]: 0.46 μM | Two-log Reduction Concentration [3]: 0.12 μM | Two-log Reduction Concentration [4]: 0.10 μM | Two-log Reduction Concentration [5]: 1.25 μM | Two-log Reduction Concentration [6]: 0.63 μM | Two-log Reduction Concentration [8]: 0.90 μM
